Where two headings read alike, the source gives them in different places.
Tests used:
[1] = test system: IL-12 induced STAT4 phophorylation mediated by Tyk2/JAK2 (heterodimeric complex); assay: IL-12 Induced pSTAT4 in Human PBMC; assay type: cell-based; details: 1.7 ng/mL IL-12
From the text: The IL-12 Induced pSTAT4 assay evaluates the inhibition of IL-12 induced STAT4 phophorylation mediated by Tyk2/JAK2 (heterodimeric complex).

[2] = test system: GM-CSF induced STAT5 phosphorylation mediated by the JAK2/JAK2 homdimeric complex; assay: GM-CSF Induced pSTAT5 in Human PBMC; details: Homo sapiens, PBMC, 20 min
From the text: Human PBMC are isolated from buffy coat and are stored frozen for assays as needed.

[3] = read-out: PBMC_GMCSF_pSTAT5 IC50, human PBMC, GM-CSF 5 ng/mL for 20 minutes, pSTAT5

CNc1cc(Nc2cccn(-c3cc(C)n(C)n3)c2=O)nc2c(C(=O)NC3CCC3)cnn12 [I-136] was tested. Which IC50 [1] did it give?
The IC50 was < 100 nM.

And the IC50 [2, 3]?
Its IC50 is > 2500 nM.

How did the IC50 [1] turn out when CNc1cc(Nc2cccn([C@H]3CC[C@H](OC)CC3)c2=O)nc2c(C(=O)N[C@H]3CC[C@@H]3O)cnn12 [I-540] was run?
Its IC50 is < 100 nM.

And the IC50 [2, 3]?
The IC50 was > 12500 nM.

How did the IC50 [1] turn out when CNc1cc(Nc2cc(F)cn(-c3ccn(C)n3)c2=O)nc2c(C(=O)NC3CC3)cnn12 [I-378] was run?
Its IC50 is < 100 nM.

And the IC50 [2, 3]?
Its IC50 is > 12500 nM.

For CNc1cc(Nc2cccn(-c3cnc(C(C)(C)O)cn3)c2=O)nc2c(C(=O)NC3CCC3)cnn12 [I-95], which IC50 [1] is on record?
Its IC50 is < 100 nM.

And the IC50 ([2]; read-out: PBMC_GMCSF_pSTAT5 IC50)?
The IC50 was > 50000 nM.

What does the source list for CNc1cc(Nc2cccn(-c3cnn(C)c3)c2=O)nc2c(C(=O)N[C@H]3C[C@H]3F)cnn12 [I-296]?
IC50 [1]: < 100 nM; IC50 [2, 3]: > 50000 nM

How did the IC50 [1] turn out when CNc1cc(Nc2cccn(-c3nccs3)c2=O)nc2c(C(=O)N[C@H]3C[C@H]3F)cnn12 [I-243] was run?
Its IC50 is < 100 nM.

And the IC50 [2, 3]?
Its IC50 is > 2500 nM.

CNc1cc(Nc2cc(F)cnc2OCCOC)nc2c(C(=O)N[C@H]3C[C@H]3F)cnn12 [I-285] was tested. Which IC50 [1] did it give?
The IC50 was < 100 nM.

And the IC50 [2, 3]?
The IC50 was > 50000 nM.

Which IC50 [1] does the source give for CNc1cc(Nc2cccn(-c3ccc(C(=O)N4CCCC4)cn3)c2=O)nc2c(C(=O)NC3CCC3)cnn12 [I-121] here?
The IC50 was 100 to 500 nM.

And the IC50 [2, 3]?
Its IC50 is > 12500 nM.

What does the source list for CCn1cc(Cl)cc(Nc2cc(NC)n3ncc(C(N)=O)c3n2)c1=O [I-35]?
IC50 [1]: < 100 nM; IC50 [2, 3]: > 300 nM

What does the source list for CNc1cc(Nc2cc(F)cnc2OC2CC2)nc2c(C(=O)NC3CC3)cnn12 [I-274]?
IC50 [1]: < 100 nM; IC50 [2, 3]: > 12500 nM

Which results are given for CNc1cc(Nc2cccc([C@H]3CCCOC3)n2)nc2c(C(=O)N[C@H]3C[C@H]3F)cnn12 [I-563]?
IC50 [1]: < 100 nM; IC50 [2, 3]: > 50000 nM

What does the source list for CNc1cc(Nc2cccn(C3CCCCC3)c2=O)nc2c(C(=O)N[C@H]3C[C@H]3F)cnn12 [I-305]?
IC50 [1]: < 100 nM; IC50 [2, 3]: > 12500 nM

CNc1cc(Nc2cccn([C@H]3CC[C@H](OC)CC3)c2=O)nc2c(C(=O)N[C@H]3CC[C@H]3O)cnn12 [I-539] was tested. Which IC50 [1] did it give?
Its IC50 is < 100 nM.

What about the IC50 [2, 3] of the same compound?
The IC50 was > 50000 nM.

With CNc1cc(Nc2cccn(-c3ccccn3)c2=O)nc2c(C(=O)NC3CC3)cnn12 [I-680] as the compound, how does the IC50 [1] read?
Its IC50 is < 100 nM.

And the IC50 [2, 3]?
Its IC50 is > 12500 nM.

Which results are given for CNc1cc(Nc2cc(Cl)cn(-c3cnn(C4CC4)c3C)c2=O)nc2c(C(=O)N[C@H]3C[C@H]3F)cnn12 [I-326]?
IC50 [1]: < 100 nM; IC50 [2, 3]: > 50000 nM

Which IC50 [1] does the source give for CNc1cc(Nc2cccnc2OC2CC2)nc2c(C(=O)NC3CCC3O)cnn12 (stereo not shown) [I-392, 5-((2-cyclopropoxypyridin-3-yl)amino)-N-(2-hydroxycyclobutyl)-7-(methylamino)pyrazolo[1,5-a]pyrimidine-3-carboxamide] here?
Its IC50 is < 100 nM.

And the IC50 [2, 3]?
Its IC50 is > 50000 nM.

For CNc1cc(Nc2cccn([C@H]3CC[C@H](OC)CC3)c2=O)nc2c(C(=O)NC3CC3)cnn12 [I-343], which IC50 [1] is on record?
Its IC50 is < 100 nM.

What about the IC50 [2, 3] of the same compound?
The IC50 was > 12500 nM.

What does the source list for COc1ncccc1Nc1cc(NCCCN2CCOCC2)n2ncc(C(=O)N[C@@H]3C[C@@H]3F)c2n1 (stereo in doubt) [I-377, N-((1R,2S)-2-fluorocyclopropyl)-5-((2-methoxypyridin-3-yl)amino)-7-((3-morpholinopropyl)amino)pyrazolo[1,5-a]pyrimidine-3-carboxamide]?
IC50 [1]: 100 to 500 nM; IC50 [2, 3]: > 50000 nM

CNc1cc(Nc2cccnc2OC2CC2)nc2c(C(=O)NCC3(CO)CC3)cnn12 [I-426] was tested. Which IC50 [1] did it give?
The IC50 was < 100 nM.

What about the IC50 [2, 3] of the same compound?
Its IC50 is > 50000 nM.

What does the source list for CNc1cc(Nc2cc(F)cn(-c3cnn(C)c3)c2=O)nc2c(C(=O)NC3CC3)cnn12 [I-380]?
IC50 [1]: < 100 nM; IC50 [2, 3]: > 12500 nM

With CNc1cc(Nc2cccn(-c3ccc(OC)cn3)c2=O)nc2c(C(=O)N[C@H]3C[C@H]3F)cnn12 [I-265] as the compound, how does the IC50 [1] read?
Its IC50 is < 100 nM.

What about the IC50 [2, 3] of the same compound?
The IC50 was > 12500 nM.

For [2H]C([2H])([2H])Oc1ncc(C)cc1Nc1cc(NC)n2ncc(C(=O)N[C@H]3C[C@H]3F)c2n1 [I-259], which IC50 [1] is on record?
Its IC50 is < 100 nM.

What about the IC50 [2, 3] of the same compound?
Its IC50 is > 12500 nM.

What does the source list for CNc1cc(Nc2cccn([C@H]3CC[C@@](C)(OC)CC3)c2=O)nc2c(C(=O)N[C@H]3C[C@H]3F)cnn12 [I-360]?
IC50 [1]: < 100 nM; IC50 [2, 3]: > 50000 nM

Which IC50 [1] does the source give for CNc1cc(Nc2cc(F)cn(-c3cc(C)n(C)n3)c2=O)nc2c(C(=O)NC3CC3)cnn12 [I-384] here?
Its IC50 is < 100 nM.

And the IC50 [2, 3]?
The IC50 was > 300 nM.

For CNc1cc(Nc2cccn(C3CCN(CCF)CC3)c2=O)nc2c(C(=O)N[C@H]3C[C@H]3F)cnn12 [I-570], which IC50 [1] is on record?
Its IC50 is < 100 nM.

What about the IC50 [2, 3] of the same compound?
Its IC50 is > 50000 nM.

Which results are given for CNc1cc(Nc2cccn(-c3nc(C)co3)c2=O)nc2c(C(=O)N[C@@H]3CC[C@H]3O)cnn12 (stereo in doubt) [I-658, N-((1R,2R)-2-hydroxycyclobutyl)-7-(methylamino)-5-((1-(4-methyloxazol-2-yl)-2-oxo-1,2-dihydropyridin-3-yl)amino)pyrazolo[1,5-a]pyrimidine-3-carboxamide]?
IC50 [1]: < 100 nM; IC50 [2, 3]: > 50000 nM

Source: patent publication US10577373B2, “TYK2 inhibitors and uses thereof” (Nimbus Lakshmi, Inc., priority 2017, dated 2020)
